Assay results reported in patent US20230012172A1, “COMPOSITIONS AND METHODS FOR TREATMENT OF PLATINUM-BASED CHEMOTHERAPEUTIC RESISTANT TUMORS” (The George Washington University, priority 2020, published 2023).

How the values were obtained:
IGROV1 CR cells = assay: IGROV1 CR xenograft in nude mice; format: in vivo; conditions: IGROV1 CR xenograft tumors
Method: To further evaluate the therapeutic potential of UA in combination with cisplatin in vivo, IGROV1 CR cells were subcutaneously implanted into nude mice to form platinum drug resistant ovarian tumors. The mice with these tumors were then treated with UA, cisplatin, or combination of both via intraperitoneal injection.
Animal experiments. Xenograft experiments were performed in 6-week female BALB/c athymic nude mice (Jackson Laboratory) by subcutaneously injecting 5×10^6 IGROV1 CR cells within 50% Matrigel gelatinous protein mixture (Corning). Mice were randomized to receive treatment after reached a minimum tumor volume of 150 mm^3. 4 groups of mice (5 mice per group) were treated intraperitoneally with vehicle, cisplatin (8 mg/kg/2day), UA (10 mg/kg/2 days) and combination of UA and cisplatin (10 mg/kg/2 day of UA +8 mg/kg/2 day of cisplatin) for 2 weeks. A minimum of 6 tumors per group were assessed. The tumor volume was calculated according to the formula: length×(width^2)/2.
Immunohistochemistry. Immunohistochemical (IHC) staining and scoring were performed similar to that previously described n Zhou et al., (2018) Oncogene 37, 3981-3997, the disclosure of which is incorporated herein in its entirety. The quantification of immunohistochemical staining was scored blindly at least by two independent observers.

SKOV3 CR cells = assay: Cell viability assay (SRB) in SKOV3 CR cells; format: cell-based; conditions: SKOV3 CR cells
Method: Cell culture and resistance cell line establishment. IGROV1 cells, U2OS (HTB-96; ATCC), HEK293T (CRL-11268; ATCC) and SKOV3 cells (HTB-77; ATCC) were cultured at 37° C. in DMEM with 10% Fetal Bovine Serum (FBS). PEO1 (10032308; Sigma-Aldrich), PEO4 (10032309; Sigma-Aldrich), PEO14 (10032311; […] Sigma-Aldrich) were cultured at 37° C. in RPMI-1640 with 10% FBS. OV90 (CRL-11732; […] All the cells were cultured at in a humidified incubator with 5% CO2 atmosphere. Cisplatin resistant cell lines, including SKOV3 CR, IGROV1 CR and OV90 CR, were generated using an approach similar to that reported in Zhou et al., (2018) Oncogene 37, 3981-3997, the disclosure of which is incorporated herein in its entirety. Cell viability assay. Cells were seeded at 3,000 cells/well in 96-well plates were treated with drugs, followed by incubation for 48 hours, after which cell viability was detected using Sulforhodamine B (SRB) assay (64). Absorbance at 510 nm was detected using a SpectraMax Reader (Molecular Devices) and analyzed with SoftMax Analysis Software (Molecular Devices). Combinational index (CI) values were calculated using CompuSyn software.

Row | SMILES | expression of pSTAT3 in tumor samples (IHC) (IGROV1 CR cells) | re-sensitization to cisplatin (SKOV3 CR cells) | synergistic effects with cisplatin (combination index) (SKOV3 CR cells)
1 | C[C@H]1[C@H](C)CC[C@]2(C(=O)O)CC[C@]3(C)C(=CC[C@@H]4[C@@]5(C)CC[C@H](O)C(C)(C)[C@@H]5CC[C@]43C)[C@H]12 [UA, ursolic acid] | suppressed |  | 
2 | CC1(C)CC[C@]2(C(=O)O)CC[C@]3(C)C(=CC[C@@H]4[C@@]5(C)CC[C@H](O[C@@H]6O[C@H](C(=O)O)[C@@H](O)[C@H](O[C@@H]7OC[C@@H](O)[C@H](O)[C@H]7O)[C@H]6O)C(C)(C)[C@@H]5CC[C@]43C)[C@@H]2C1 [Mc, Momordin Ic] |  | re-sensitized | synergy
